# Reference: patent EP0811615A1, “1-Aryl-5-(substituted alkyl (thio) amido) pyrazoles and their use as pesticides” (RHONE-POULENC AGROCHIMIE, priority 1996, dated 1997)
# Columns and labels:
# [1] = test system: buckthorn or cotton aphid; assay: Buckthorn or cotton aphid foliar spray test; assay type: in vivo, Aphis nasturtii / Aphis gossypii; conditions: Aphis gossypii; foliar application at 100 ppm; counted after one day (buckthorn aphid) or three days (cotton aphid); read-out: pest mortality BA*/CA
# Method: (§1) For mite, aphid, southern armyworm, Mexican bean beetle, and tobacco budworm tests, a solution or suspension was prepared by adding 10 mg of the test compound to a solution of 160 mg of dimethylformamide, 838 mg of acetone, 2 mg of a 3:1 ratio of Triton X-172 : Triton X-152 (respectively, mainly anionic and nonionic low foam emulsifiers which are each anhydrous blends of alkylaryl polyether alcohols with organic sulfonates), and […] of water. The result was a concentration of 100 ppm of the test compound.
# Buckthorn or cotton aphid: Adult and nymphal stages of buckthorn or cotton aphid were reared on potted dwarf nasturtium or cotton plants, respectively. The potted plants (one pot per compound tested) infested with 100-150 aphids, were placed on a revolving turntable and sprayed with 100 ml of the 100 ppm test compound formulation by use of a DeVilbiss spray gun set at 40 psig air pressure. As an untreated control, 100 ml of a water-acetone-DMF-emulsifier solution, containing no test compound, were also sprayed on infested plants. A treated control with a commercial technical compound, malathion or cyhalothrin, formulated in the same manner, was tested as a standard. After spraying, the pots were stored for one day on buckthorn aphid or three days for cotton aphid, after which the dead aphids were counted.
# housefly = assay: House fly bait test; assay type: in vivo; conditions: Musca domestica; bait application at 100 ppm; adult flies, after 24 hours; read-out: pest mortality HF
# Excerpt: For housefly tests, the formulation was initially prepared in a similar manner to the above, but in 16.3 g of water with corresponding adjustment of other components, providing a 200 ppm concentration. Final dilution with an equal volume of a 20% by weight aqueous solution of sucrose provided a 100 ppm concentration of the test compound. When necessary, sonication was provided to insure complete dispersion.
# House fly: Four to six day old adult house flies were reared according to the specifications of the Chemical Specialties Manufacturing Association (Blue Book, McNair-Dorland Co., N.Y. 1954; pages 243-244, 261) under controlled conditions. The flies were immobilized by anesthetizing with carbon dioxide and twenty five immobilized individuals, males and females, were transferred to a cage consisting of a standard food strainer and a wrapping-paper-covered surface. Ten ml of the 100 ppm test compound formulation were added to a soufflé cup containing an absorbent cotton pad. As an untreated control, 10 ml of a water-acetone-DMF-emulsifier-sucrose solution, containing no test compound, were applied in a similar manner. A treated control with a commercial technical compound, malathion, formulated in the same manner, was tested as a standard. The bait cup was introduced inside the food strainer prior to admitting the anesthetized flies.
# southern armyworm = assay: Southern armyworm foliar spray test on bean plants; assay type: in vivo; conditions: Spodoptera eridania, 120 h; foliar application at 100 ppm; second instar larvae, held five days; read-out: pest mortality SAW
# Method: as §1
# (§2) Southern armyworm: Potted bean plants, were placed on a revolving turntable and sprayed with 100 ml of the 100 ppm test compound formulation by use of a DeVilbiss spray gun set at 40 psig air pressure. As an untreated control, 100 ml of a water-acetone-DMF-emulsifier solution, containing no test compound, were also sprayed on plants. A treated control with a commercial technical compound, either cypermethrin or sulprofos, formulated in the same manner, was tested as a standard. When dry, the leaves were placed in plastic cups lined with moistened filter paper. Five randomly selected second instar southern armyworm larvae were introduced into each cup which was closed and held for five days. Larvae which were unable to move the length of the body, even upon stimulation by prodding, were considered dead.
# tobacco budworm = assay: Tobacco budworm foliar spray test on cotton plants; assay type: in vivo; conditions: Heliothis virescens, 120 h; foliar application at 100 ppm; second instar larvae, held five days; read-out: pest mortality TBW
# Method: as §1
# Tobacco budworm: Potted cotton plants were placed on a revolving turntable and sprayed with 100 ml of the 100 ppm test compound formulation by use of a DeVilbiss spray gun set at 40 psig air pressure. As an untreated control, 100 ml of a water-acetone-DMF-emulsifier solution, containing no test compound, were also sprayed on plants. A treated control with a commercial technical compound, either cypermethrin or sulprofos, formulated in the same manner, was tested as a standard. When dry, the leaves were placed in plastic dishes containing a piece of filter paper and a moistened dental wick. One randomly selected second instar tobacco budworm larva was then introduced into each cup which was closed and held for five days. Larvae unable to move the length of their body, even upon stimulation by prodding, were considered dead.
# Mexican bean beetle = Mexican bean beetle foliar spray test on bean plants; assay type: in vivo; conditions: Epilachna varivestis, 120 h; foliar application at 100 ppm; second instar larvae, held five days; read-out: pest mortality MBB
# Method: as §1
# as §2, with “Mexican bean beetle:” for “Southern armyworm:”, “plants” for “plants,”, “formulation, sufficient to wet the plants to runoff,” for “formulation”, “Mexican bean beetle” for “southern armyworm”
# [2] = test system: southern root-knot nematode; assay: Southern root-knot nematode soil test on tomato; assay type: in vivo; set-up: dose or concentration left out as unconfirmed; conditions: Meloidogyne incognita; Soil Conc. at 21 Kg/ha; second stage juveniles; read-out: pest mortality Nema (J2)
# Method: For southern root-knot nematode and systemic tests for southern armyworm, cotton aphid, tobacco budworm and greenbug, a stock solution or suspension was prepared by adding 15 mg of the test compound to 250 mg of dimethylformamide, 1250 mg of acetone and 3 mg of the emulsifier blend referenced above. Water was then added to provide a test compound concentration of 150 ppm. When necessary, sonication was provided to insure complete dispersion.
# Southern root-knot nematode: Infected roots of tomato plants, containing egg masses of southern root-knot nematode, were removed from a stock culture and cleaned of soil by shaking and washing with tap water. The nematode eggs were separated from the root tissue and rinsed with water. Samples of the egg suspension were placed on a fine screen over a receiving bowl, in which the water level was adjusted to be in contact with the screen. From the bowl, juveniles were collected on a fine screen. The bottom of a cone-shaped container was plugged with coarse vermiculite and then filled to within 1.5 cm of the top with about a 200 ml volume of pasteurized soil. Then into a hole made in the center of the soil in the cone was pipetted an aliquot of the 150 ppm test compound formulation. A treated control with a commercial technical compound, fenamifos, formulated in a similar manner, was tested as a standard. As an untreated control, an aliquot of a water-acetone-DMF-emulsifier solution, containing no test compound, was applied in a similar manner. Immediately after treatment of the soil with the test compound there were added to the top of each cone 1000 second stage juvenile southern root-knot nematodes. After 3 days, a single healthy tomato seedling was then transplanted into the cone. The cone, containing the infested soil and tomato seedling, was kept in the greenhouse for 3 weeks. At the termination of the test, […], […]
# twospotted spider mite = assay: Twospotted spider mite test; assay type: in vivo; conditions: Tetranychus urticae, 144 h; 100 ppm in foliar bait tests; read-out: control of mites
# Method: Twospotted spider mite: Leaves infested with adult and nymphal stages of the two-spotted spider mite, obtained from a stock culture were placed on the primary leaves of two bean plants growing in a 6 cm. peat pot. A sufficient number of mites (150-200) for testing were transferred to the fresh plants within a period of twenty-four hours. The potted plants (one pot per compound) were placed on a revolving turntable and sprayed, sufficient to wet the plants to runoff, with 100 ml of the 100 ppm test compound formulation by use of a DeVilbiss spray gun set at 40 psig. air pressure. As an untreated control, 100 ml of the water-acetone-DMF-emulsifler solution, containing no test compound, were also sprayed on infested plants. A treated control with a commercial technical compound, either dicofol or hexythiazox, formulated in the same manner, was tested as a standard. The sprayed plants were held for six days, after which a mortality count of motile forms was made.
SMILES,mortality at 100 ppm [1],mortality at 100 ppm (housefly),mortality at 100 ppm (southern armyworm),mortality at 100 ppm (tobacco budworm),mortality at 100 ppm (Mexican bean beetle),mortality [2],mortality at 100 ppm (twospotted spider mite)
COC(C(=O)Nc1c(SC(F)(F)F)c(C#N)nn1-c1c(Cl)cc(C(F)(F)F)cc1Cl)c1ccccc1 (stereo not drawn) [Compound 22],70 to 100%,70 to 100%,70 to 100%,70 to 100%,,,
CCOCC(=O)Nc1c([S+]([O-])C(F)(F)F)c(C#N)nn1-c1c(Cl)cc(C(F)(F)F)cc1Cl (stereo not drawn) [Compound 8],,70 to 100%,70 to 100%,70 to 100%,70 to 100%,70 to 100%,
CCOC(C)C(=O)Nc1c(SC(F)(F)F)c(C#N)nn1-c1c(Cl)cc(C(F)(F)F)cc1Cl (stereo not drawn) [Compound 39],,70 to 100%,70 to 100%,,70 to 100%,70 to 100%,
COC(C)C(=O)Nc1c([S+]([O-])C(F)(Cl)Cl)c(C#N)nn1-c1c(Cl)cc(C(F)(F)F)cc1Cl (stereo not drawn) [Compound 28],,70 to 100%,70 to 100%,70 to 100%,70 to 100%,70 to 100%,
COCC(=O)Nc1c(SC(F)(Cl)Cl)c(C#N)nn1-c1c(Cl)cc(OC(F)(F)F)cc1Cl [Compound 46],,70 to 100%,70 to 100%,70 to 100%,,,30 to 70%
COCC(=O)Nc1c(S(=O)(=O)C(F)(F)F)c(C#N)nn1-c1ncc(C(F)(F)F)cc1Cl [Compound 50],70 to 100%,70 to 100%,70 to 100%,,,70 to 100%,
COCC(=O)Nc1c([S+]([O-])C(F)(F)F)c(C#N)nn1-c1c(Cl)cc(C(F)(F)F)cc1Cl (stereo not drawn) [Compound 7],,70 to 100%,70 to 100%,70 to 100%,70 to 100%,70 to 100%,
COC(C)C(=O)Nc1c(SC(F)(Cl)Cl)c(C#N)nn1-c1c(Cl)cc(OC(F)(F)F)cc1Cl (stereo not drawn) [Compound 47],,70 to 100%,70 to 100%,70 to 100%,,,30 to 70%
N#Cc1nn(-c2c(Cl)cc(C(F)(F)F)cc2Cl)c(NC(=O)CO)c1SC(F)(F)F [Compound 32],,70 to 100%,70 to 100%,,,70 to 100%,
COCC(=O)Nc1c(S(=O)(=O)C(F)(F)F)c(C#N)nn1-c1c(Cl)cc(C(F)(F)F)cc1Cl [Compound 11],,70 to 100%,70 to 100%,,70 to 100%,70 to 100%,
COCCOCC(=O)Nc1c([S+]([O-])C(F)(F)F)c(C#N)nn1-c1c(Cl)cc(C(F)(F)F)cc1Cl (stereo not drawn) [Compound 9],,70 to 100%,70 to 100%,70 to 100%,70 to 100%,70 to 100%,
COCC(=O)Nc1c([S+]([O-])C(F)(Cl)Cl)c(C#N)nn1-c1c(Cl)cc(C(F)(F)F)cc1Cl (stereo not drawn) [Compound 17],,70 to 100%,70 to 100%,70 to 100%,,70 to 100%,
CCOCC(=O)Nc1c(S(=O)(=O)C(F)(F)F)c(C#N)nn1-c1c(Cl)cc(C(F)(F)F)cc1Cl [Compound 12],,70 to 100%,70 to 100%,70 to 100%,,70 to 100%,
COC(C)C(=O)Nc1c(S(=O)(=O)C(F)(F)F)c(C#N)nn1-c1c(Cl)cc(C(F)(F)F)cc1Cl (stereo not drawn) [Compound 25],70 to 100%,70 to 100%,70 to 100%,,70 to 100%,70 to 100%,
CCCCCCCOCC(=O)Nc1c(SC(F)(F)F)c(C#N)nn1-c1c(Cl)cc(C(F)(F)F)cc1Cl [Compound 34],,70 to 100%,70 to 100%,,,70 to 100%,
CCOCC(=O)Nc1c([S+]([O-])C(F)(Cl)Cl)c(C#N)nn1-c1c(Cl)cc(C(F)(F)F)cc1Cl (stereo not drawn) [Compound 18],,,70 to 100%,70 to 100%,70 to 100%,70 to 100%,
CCOCC(=O)Nc1c(SC(F)(F)F)c(C#N)nn1-c1c(Cl)cc(C(F)(F)F)cc1Cl [Compound 2],70 to 100%,70 to 100%,70 to 100%,70 to 100%,70 to 100%,,
CCCCOC(C)C(=O)Nc1c(SC(F)(F)F)c(C#N)nn1-c1c(Cl)cc(C(F)(F)F)cc1Cl (stereo not drawn) [Compound 42],,70 to 100%,70 to 100%,,,70 to 100%,
COCCOCC(=O)Nc1c(S(=O)(=O)C(F)(F)F)c(C#N)nn1-c1c(Cl)cc(C(F)(F)F)cc1Cl [Compound 13],70 to 100%,,70 to 100%,,,70 to 100%,
